Like-named read-outs stand apart in the source and are kept apart here.
Columns and labels:
[1] = Commercial actuator, previously reported, cited from earlier work
[2] = Experimental: Briefly, a Next Generation Impactor (Model 170 NGI; Copley) was used to capture dose exiting a regular non-sectioned AIT (used here to minimize assay steps) at an inhalation flowrate of 30 L/min. Interior surfaces of the AIT and the impaction plates within the NGI were coated with silicone grease (Molykote 316; Dow Corning) prior to testing. […] Following actuation, the AIT was washed twice with 10 mL of 0.1 N HCl, while each plate of the NGI was washed once with 5 mL of 0.1 N HCl. Samples were assayed via UV spectroscopy at the absorbance maximum of 279 nm, as discussed above.
Tests were performed using the 0.22 mm actuator orifice with Primatene Mist HFA. Both transverse and coaxial insertion angles were used, with three repeated measures taken at each orientation. Particle size distributions were characterized via calculation of the mass median aerodynamic diameter (MMAD) and geometric standard deviation (GSD) via linear interpolation (e.g., Hinds W C. 2nd ed. Hoboken, N.J.: Wiley; 1999). A validated regional lung deposition model (e.g., Javaheri et al., J Aerosol Sci. 2013, 64:81-93 and Finlay et al., Lung Delivery of Aerosolized Dextran. 2000, 161:91-7) was used to estimate tracheobronchial and alveolar deposition from the measured particle size distributions under a simulated breath with an inhaled volume of 3.0 L, inhalation flowrate of 30 L/min, a pause between inhalation of (i) 0 or (ii) 10 seconds, and exhalation flowrate of 30 L/min.

[3] = test system: grade 2 or higher acute allergic reaction
Excerpt: Institutional Review Board approval was obtained for the study and informed consent was obtained from study participants.

[4] = 0.22 mm actuator orifice, unaffected by insertion angle
[5] = 0.22 mm actuator, Coaxial, 30 L/min
[6] = 0.22 mm actuator, Transverse, 30 L/min

Compound: CNCC(O)c1ccc(O)c(O)c1 (stereo not drawn) [epinephrine, 4-(1-hydroxy-2-(methylamino)ethyl)benzene-1,2-diol]
- Deposition, NGI Stage 1 ([1]; Coaxial): 2.1 µg
- Deposition, NGI Stage 2 ([1]; Coaxial): 2.5 µg
- Deposition, NGI Stage 3 ([1]; Coaxial): 11.1 µg
- Deposition, NGI Stage 4 ([1]; Coaxial): 72.9 µg
- Deposition, NGI Stage 5 ([1]; Coaxial): 99.1 µg
- Deposition, NGI Stage 6 ([1]; Coaxial): 34.1 µg
- Deposition, NGI Stage 7 ([1]; Coaxial): 6.3 µg
- Deposition, NGI Stage 8 ([1]; Coaxial): 0.0 µg
- Deposition, Throat ([1]; Coaxial): 136.3 µg
- Deposition, Total Recovered ([1]; Coaxial): 364.3 µg
- Deposition, NGI Stage 1 ([1]; Transverse): 0.8 µg
- Deposition, NGI Stage 2 ([1]; Transverse): 1.1 µg
- Deposition, NGI Stage 3 ([1]; Transverse): 6.8 µg
- Deposition, NGI Stage 4 ([1]; Transverse): 56.0 µg
- Deposition, NGI Stage 5 ([1]; Transverse): 96.8 µg
- Deposition, NGI Stage 6 ([1]; Transverse): 37.7 µg
- Deposition, NGI Stage 7 ([1]; Transverse): 6.6 µg
- Deposition, NGI Stage 8 ([1]; Transverse): 0.0 µg
- Deposition, Throat ([1]; Transverse): 212.9 µg
- Deposition, Total Recovered ([1]; Transverse): 418.8 µg
- GSD [2, 4]: ~1.63
- MMAD [2, 4]: approximately 2 μm
- Deposition, NGI Stage 1 [2, 5]: 1.9 µg
- Deposition, NGI Stage 2 [2, 5]: 1.9 µg
- Deposition, NGI Stage 3 [2, 5]: 8.5 µg
- Deposition, NGI Stage 4 [2, 5]: 82.6 µg
- Deposition, NGI Stage 5 [2, 5]: 122.2 µg
- Deposition, NGI Stage 6 [2, 5]: 42.0 µg
- Deposition, NGI Stage 7 [2, 5]: 7.6 µg
- Deposition, NGI Stage 8 [2, 5]: 0.0 µg
- Deposition, Throat [2, 5]: 78.6 µg
- Deposition, Total Recovered [2, 5]: 345.2 µg
- MMAD (mass median aerodynamic diameter) [2, 5]: 2.00 μm
- Deposition, NGI Stage 1 [2, 6]: 1.5 µg
- Deposition, NGI Stage 2 [2, 6]: 1.4 µg
- Deposition, NGI Stage 3 [2, 6]: 8.8 µg
- Deposition, NGI Stage 4 [2, 6]: 80.8 µg
- Deposition, NGI Stage 5 [2, 6]: 121.7 µg
- Deposition, NGI Stage 6 [2, 6]: 43.6 µg
- Deposition, NGI Stage 7 [2, 6]: 9.5 µg
- Deposition, NGI Stage 8 [2, 6]: 0.0 µg
- Deposition, Throat [2, 6]: 95.8 µg
- Deposition, Total Recovered [2, 6]: 363.0 µg
- MMAD (mass median aerodynamic diameter) [2, 6]: 1.98 μm
- MMAD (mass median aerodynamic diameter) ([2]; Commercial actuator, Coaxial, calculated here from previously reported deposition): 2.05 μm
- MMAD (mass median aerodynamic diameter) ([2]; Commercial actuator, Transverse, calculated here from previously reported deposition): 1.93 μm
- Tachycardia ([3]; Patient 1, 4 puffs given): Yes
- Time to Resolution of Allergic Reaction After Treatment Initiated ([3]; Patient 1, 4 puffs given): 3 min
- Tremors ([3]; Patient 1, 4 puffs given): Yes
- Tachycardia ([3]; Patient 2, 4 puffs given): Yes
- Time to Resolution of Allergic Reaction After Treatment Initiated ([3]; Patient 2, 4 puffs given): within 2 mins
- Tremors ([3]; Patient 2, 4 puffs given): Yes
- Tachycardia ([3]; Patient 3, 4 puffs given): Yes
- Time to Resolution of Allergic Reaction After Treatment Initiated ([3]; Patient 3, 4 puffs given): 0.5 min
- Tremors ([3]; Patient 3, 4 puffs given): Yes
- Tachycardia ([3]; Patient 4, 2 puffs given): Yes
- Time to Resolution of Allergic Reaction After Treatment Initiated ([3]; Patient 4, 2 puffs given): 1 min
- Tremors ([3]; Patient 4, 2 puffs given): Yes
- Tachycardia ([3]; Patient 5, 6 puffs given): Yes
- Time to Resolution of Allergic Reaction After Treatment Initiated ([3]; Patient 5, 6 puffs given): 6 min
- Tremors ([3]; Patient 5, 6 puffs given): Yes
- Tachycardia ([3]; Patient 6, 9 puffs given): Yes
- Tremors ([3]; Patient 6, 9 puffs given): Yes
- Time to Resolution of Allergic Reaction After Treatment Initiated ([3]; Patient 6, 9 puffs given, entry runs on: resolved after 5 puffs, but recurred after 5 mins): resolved after 5
- Time to recurrence of allergic reaction after resolution ([3]; Patient 6, 9 puffs given, resolved after 5 puffs): after 5 mins
- Tachycardia ([3]; Patient 7, 2 puffs given): Yes
- Time to Resolution of Allergic Reaction After Treatment Initiated ([3]; Patient 7, 2 puffs given): 2 min
- Tremors ([3]; Patient 7, 2 puffs given): Yes
- Tachycardia ([3]; Patient 8, 2 puffs given): Yes
- Time to Resolution of Allergic Reaction After Treatment Initiated ([3]; Patient 8, 2 puffs given): 1 min
- Tremors ([3]; Patient 8, 2 puffs given): Yes
- Tachycardia ([3]; Patient 9, 2 puffs given): Yes
- Time to Resolution of Allergic Reaction After Treatment Initiated ([3]; Patient 9, 2 puffs given): 1 min
- Tremors ([3]; Patient 9, 2 puffs given): Yes
- Tachycardia ([3]; Patient 10, 5 puffs given): Yes
- Time to Resolution of Allergic Reaction After Treatment Initiated ([3]; Patient 10, 5 puffs given): 1 min
- Tremors ([3]; Patient 10, 5 puffs given): Yes
- Tachycardia ([3]; Patient 11, 2 puffs given): Yes
- Tremors ([3]; Patient 11, 2 puffs given): Yes
- Tachycardia ([3]; Patient 12, 2 puffs given): Yes
- Time to Resolution of Allergic Reaction After Treatment Initiated ([3]; Patient 12, 2 puffs given): 1 min
- Tremors ([3]; Patient 12, 2 puffs given): Yes
- Tachycardia ([3]; Patient 13, 2 puffs given): Yes
- Time to Resolution of Allergic Reaction After Treatment Initiated ([3]; Patient 13, 2 puffs given): 1 min
- Tremors ([3]; Patient 13, 2 puffs given): Yes
- Tachycardia ([3]; Patient 14, 2 puffs given): Yes
- Time to Resolution of Allergic Reaction After Treatment Initiated ([3]; Patient 14, 2 puffs given): 1 min
- Tremors ([3]; Patient 14, 2 puffs given): Yes
- Tachycardia ([3]; Patient 15, 6 puffs given): Yes
- Time to Resolution of Allergic Reaction After Treatment Initiated ([3]; Patient 15, 6 puffs given): 4 min
- Tremors ([3]; Patient 15, 6 puffs given): Yes
- Tachycardia ([3]; Patient 16, 4 puffs given): Yes
- Time to Resolution of Allergic Reaction After Treatment Initiated ([3]; Patient 16, 4 puffs given): 1.5 min
- Tremors ([3]; Patient 16, 4 puffs given): Yes
- Tachycardia ([3]; Patient 17, 3 puffs given): Yes
- Time to Resolution of Allergic Reaction After Treatment Initiated ([3]; Patient 17, 3 puffs given): 1.5 min
- Tremors ([3]; Patient 17, 3 puffs given): Yes
- Tachycardia ([3]; Patient 18, 2 puffs given): Yes
- Time to Resolution of Allergic Reaction After Treatment Initiated ([3]; Patient 18, 2 puffs given): within 30 secs
- Tremors ([3]; Patient 18, 2 puffs given): Yes
- Tachycardia ([3]; Patient 19, 4 + 2 puffs given): Yes
- Time to recurrence of allergic reaction after resolution ([3]; Patient 19, 4 + 2 puffs given): after 10 mins, then
- Tremors ([3]; Patient 19, 4 + 2 puffs given): Yes
- Time to resolution of the recurred allergic reaction ([3]; Patient 19, 4 + 2 puffs given, after recurrence): resolved in 1 min
- Time to Resolution of Allergic Reaction After Treatment Initiated ([3]; Patient 19, 4 + 2 puffs given, initial resolution): 1 minute, recurred
- Need for treatment with intramuscular epinephrine ([3]; all study participants): No study participants required treatment with intramuscular epinephrine
- Resolution of clinical symptoms (laryngopharyngeal and systemic) ([3]; all study participants, Primatene Mist HFA via Bespak BK633 actuator (0.22 mm)): prompt resolution of clinical symptoms
- Recurrence of symptoms after initial resolution ([3]; all study participants, further doses of oral inhaled epinephrine given): In two instances symptoms recurred after initial resolution and again resolved promptly

— US20220331237A1, “DEVICE, METHODS AND USES FOR TREATING ANAPHYLAXIS” (1232176 B.C. Ltd., priority 2021, published 2022)
